The test system of series [1] is L. donovani promastigotes. Nature of the series: Hoechst/PI live/dead dual staining of promastigotes. Format: cell-based, Leishmania donovani. To be noted: 5 µM, 72 h. As for the experimental part:
The toxic effect of the three compounds, Gly2, 6, and 8 on promastigotes at 5 µM >IC50 concentration was measured by Hoechst and propidium iodide (PI) double staining. […], parasites were harvested, washed in 0.01 M PBS (pH = 7.4), and stained with Hoechst 33258 (1 µg/ml) (Life Technologies, USA) and PI (5 µg/ml) (Life Technologies, USA) followed by incubation for a period of 20 min at 37°C. Subsequently, cells were washed for excessive stain removal and visualized using fluorescence microscope with 510–560-nm filter block for PI red fluorescence and excitation/emission spectra at 361/497 for Hoechst ([López-Arencibia et al., 2015]).

Series [2] has as its system L. donovani intracellular amastigotes in J774.A1 macrophages. The series is described as follows: Intramacrophage amastigote assay (Giemsa staining, J774.A1). To be noted: treated at IC50 concentration, 24 h; untreated control ~5. Format: cell-based, Leishmania donovani. Here is the method:
For evaluating the efficacy of compounds against intramacrophage amastigotes, Giemsa staining (Sigma-Aldrich) was performed. J774.A1 murine macrophage cells were plated at a cell density of 5 × 10^5 cell/well in a 6-well flat bottom plate. The cells were infected with late-stage L. donovani, rich in promastigotes at a ratio of 10:1. After 6 h, uninfected promastigotes were washed off with PBS.

Series [3] concerns L. donovani promastigotes. Nature of the series: Complement-mediated cytolysis of promastigotes by PI uptake (10% NHS). In kind it is cell-based, Leishmania donovani. As for the experimental part:
Parasites with an optimum 10% non-heat-inactivated normal human serum (NHS) were incubated with Gly2 at 5-µM concentration for 15 min. Promastigote lysis was detected by uptake of PI, by use of a FACS Diva flow cytometer (Beckton-Dickinson, Pharmingen), in accordance with the manufacturer’s protocol. Promastigotes were washed for excessive stain removal and filter block for PI red fluorescence, 510–560 nm was used ([Moreno et al., 2010]).

The subject of series [4] is AG83 promastigotes. Nature of the series: CFDA-SE promastigote proliferation assay (FACS). In kind it is cell-based, Leishmania donovani. To be noted: 5 µM. As for the experimental part:
AG83 parasite growth and multiplication were assessed by fluorescence-activated cell sorting and fluorescence microscopy with 6-carboxyfluorescein diacetate succinimidyl ester (CFDA-SE, Life Technologies, USA) as a probe. Promastigotes were washed thrice with PBS. The cells were labeled with CFDA-SE dye and were then incubated at 37°C for 10 min. These cells were then resuspended in ice-cold M199 medium. Furthermore, they were centrifuged at 1,200 g for 10 min (4°C) and resuspended in fresh medium. Cells were treated with the Gly2 and were analyzed through BD FACS DIVA for 3 consecutive replicates after 0, 24, 48, and 72 h, respectively ([Messaritakis et al., 2010]).

Series [5] has as its system L. donovani promastigotes. The series is described as follows: DCFDA estimation of reactive oxygen species in promastigotes. Format: cell-based, Leishmania donovani. To be noted: Gly2-treated promastigotes, 72 h. Here is the method: The redox homeostasis of promastigotes was monitored both qualitatively and quantitively by 2',7'-dichlorodihydrofluorescein diacetate (DCFDA) (Life Technologies, USA) staining. The untreated and […]-treated promastigotes (1 × 10^6 cells/ml) were cultured for 72 h. Following incubation, the parasites were harvested, washed with PBS, and stained with H2DCFDA (20 μM) for 20 min at 37°C. Excess stain was removed by washing with PBS, and samples were resuspended in PBS (50 μl) followed by imaging. Fluorescence intensity was determined using an excitation filter at 485 nm and an emission filter at 535 nm using confocal microscope (Nikon Ti eclipse, USA). The samples were also analyzed through BD FACS diva ([Shivappagowdar et al., 2019]).

Series [6] relates to MDCK cells. Nature of the series: MTT cell viability assay on MDCK cells. In kind it is cell-based. Here is the method:
The J774.A1 murine macrophage cells were grown in Roswell Park Memorial Institute (RPMI) 1640 medium in the presence of 10% (v/v) FBS and 100 U/ml penicillin−100 µg/ml streptomycin (Gibco, Invitrogen, Thermo Fisher Scientific, NY, USA) at 37°C (humidified) and 5% CO2. […] Madin–Darby canine kidney (MDCK) cells were obtained from the National Centre for Cell Science, Pune, India. MDCK cells were derived from the kidney tissue of an adult female Cocker Spaniel. These were grown in Dulbecco’s modified Eagle’s minimal essential medium (DMEM) in the presence of 10% (v/v) FBS and 100 U/ml penicillin−100 µg/ml streptomycin (Gibco, Invitrogen, Thermo Fisher Scientific, NY, USA) at 37°C (humidified) and 5% CO2 ([Ayana et al., 2018]; [Shivappagowdar et al., 2021]).
All the compounds were dissolved in dimethyl sulfoxide (DMSO) (Sigma-Aldrich) for 1 mM stock solution and were screened against promastigotes at a concentration of 5 µM. […]
To evaluate the cytotoxic effects of 12 compounds on L. donovani promastigotes, LDH assay was performed. This assay involves the reduction of tetrazolium salts to formazan during LDH-mediated catalysis of lactate to pyruvate, which can be detected at 490 nM. […] The selectivity index (SI) for the compound was calculated as the ratio between cytotoxicity (CC50) and activity (IC50) against promastigotes ( Table 1 ).

The values below come from publication PMC9115111, “Metalloprotease Gp63-Targeting Novel Glycoside Exhibits Potential Antileishmanial Activity” (Frontiers in Cellular and Infection Microbiology, 2022).

Where “and” joins values, the source holds several entries; their conditions need not be identical. Equal entries are not always repeated.

For the compound `CC(C)CCOC1O[C@H](CO)[C@@H](O)[C@H](O)[C@H]1O` (stereo partly drawn) [Gly2], in series [1], the “dead parasites (PI positive)” value was ~ 94% and ~ 94.15% and ~ 90%. In addition, the “number of amastigotes per infected macrophage” value in series [2] is ~ 1 amastigotes/macrophages. In addition, in series [3] (10% NHS, Gly2 at 5 µM where treated, control in 10% heat-inactivated FBS 0.06%), the “promastigote death (PI uptake)” value is ~ 80%. The “increment in PI uptake” value in series [3] (Gly2 + 10% NHS vs 10% NHS alone) is reported as 24.65%. In addition, the “percentage of CFDA-positive cells” value in series [4] (24 h) turned out to be 81.59%; in series [4] (48 h) it was 74.68%; in series [4] (72 h), 68.48%. The “% DCFDA+ parasites” value in series [5] is recorded as ~ 50%. In series [6], the “cytotoxicity in MDCK cells” value was “minimum level of cytotoxicity”.
